Values of other authors, collected in patent US20100151018A1, “SUSTAINED-RELEASE LEVETIRACETAM COMPOSITION AND PREPARATION PROCESS” (RD- Pharmagal, priority 2007, published 2010).
≈ marks a conversion by molar mass, not a printed value.

Experiments:
[1] = not given; remark: listed apart in the source

solubility in water | plasma half-life ([1]; in adults) | bioavailability ([1]; oral administration of immediate-release tablets) | SMILES
approximately 104.0 g/100 ml | 7 h | approximately 100% | CC[C@@H](C(N)=O)N1CCCC1=O [levetiracetam, S-enantiomer of a-ethyl-2-oxo-1-pyrrolidine acetamide]
308 µg/mL (≈ 1220 µM) | – | – | NC(=O)N1c2ccccc2CC(=O)c2ccccc21 [oxcarbazepine]
